Data on seven compounds can be found in patent US7425608B2, “Method of making metallopeptides” (Palatin Technologies, Inc., priority 1998, dated 2008).

Read-outs that look alike come from different tables or passages of the source. *: point of attachment. Cbz = O=C(OCc1ccccc1)* Bounds are passed on as bounds.

Data set [1] deals with T1, human neutrophil elastase (HNE) (Homo sapiens, UniProt P08246).
T1 construct: purchased Sigma (St. Louis, Mo.)
T1 sequence (P08246 30-267): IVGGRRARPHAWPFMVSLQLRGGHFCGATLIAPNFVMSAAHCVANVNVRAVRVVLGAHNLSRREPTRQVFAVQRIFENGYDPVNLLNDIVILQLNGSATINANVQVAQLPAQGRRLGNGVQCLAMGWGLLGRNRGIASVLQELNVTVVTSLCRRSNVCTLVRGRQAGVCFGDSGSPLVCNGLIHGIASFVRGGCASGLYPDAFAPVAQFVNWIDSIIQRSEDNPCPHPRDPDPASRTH
Nature of the data set: Human neutrophil elastase inhibition, spectrophotometric assay with chromogenic p-nitroanilide substrate. It is filed as biochemical. To be noted: individually resynthesised ReO metallopeptides Z-Aaa-Ser-Cys-Val-NH2 (deconvolution of the most active pool). The method, then:
Purified human neutrophil elastase (HNE) was purchased from Sigma (St. Louis, Mo.). The assay was performed spectrophotometrically using a chromogenic p-nitroanilide substrate, MeOSuc-Ala-Ala-Pro-Val-pNA, also purchased from Sigma. The assay protocols were similar to those described by others (e.g., Nakajima K et al: J Biol Chem, 254:4027-4032, 1979). Briefly, 0.05 units of HNE were treated with 1 mM concentration of the library pool in the presence of p-nitroanilide substrate. Spectrophotometric measurement were made at a wavelength of 410 nm. […] Also, among this limited series of compounds, benzyloxycarbonyl group was identified as a preferred R group where Bbb was a Gly, Ala, or Ser residue.
The pool with highest activity, Z-Aaa-Ser-Cys-Val-NH2, was deconvoluted by an iterative resynthesis process. All five individual peptides in this pool were synthesized by the methodologies and protocols of Example 10. Each individual peptide was characterized by mass spectrometry and HPLC. A screening assay was performed as generally described in Example 11. The best results were obtained with Leu or Ile in the position Aaa in the peptide chain. […] Substitution of the three residues Ala, Phe, and Lys(N-Z) at Aaa yielded IC50 values in excess of 1,000 μM.

For data set [2] the following is noted: cited from earlier work.
Where [3] appears, read: related to the ionic core charge of the metal complex.

Cbz-ISCV-NH2: half-maximal inhibition in data set [1] (IC50) was put at 179 µM.
Regarding methoxyisobutylisonitrile [^99mTc-MIBI], in data set [2] (in vivo), the “compartmentalisation / excretion / passage across biological barriers” value is on record as “compartmentalized in heart muscles”.
For the compound “Z-Leu-Ser-Cys-Val-NH2 (Cbz-LSCV-NH2; not fully specified; printed as Z-Leu-Ser-Cys-Val-NH2)”, in data set [1], the IC50 (usually the concentration that inhibits the measured activity by half) was 139 µM.
`O=C(O)CNC(=O)CNC(=O)CNC(=O)CS` [^99mTc-MAG3, mercaptoacetylglycylglycylglycine, metal not drawn]: the “compartmentalisation / excretion / passage across biological barriers” value in data set [2] (setting [3]) was “excreted through the kidneys”.
On to `CCOC(=O)[C@H](C[S-])[N-]CCN[C@@H](C[S-])C(=O)OCC.[O-2].[Tc]` [^99mTc-ECD, ethyl cysteinate dimer], for which, in data set [2] (setting [3]), the “compartmentalisation / excretion / passage across biological barriers” value was “pass through the blood-brain barrier”.
Compound Z-Lys(N,-Z)-Ser-Cys-Val-NH2 registered an IC50 in data set [1] greater than 1000 µM.
Regarding `C/C(=N\O)C(C)NCC(C)(C)CNC(C)/C(C)=N/O` (stereo not shown) [^99mTc-HMPAO, hexamethylpropyleneamine oxime, metal not drawn], in data set [2] (setting [3]), the “compartmentalisation / excretion / passage across biological barriers” value is reported as “pass through the blood-brain barrier”.
